Results as given in US5935840A, “Activated recombinant adenovirus proteinases” (priority 1995, dated 1999).
“Also recorded” adds a separate entry of the source. No end group written: not given here.

Assays:
[1] = test system: Ad2 major core protein precursor, pVII; assay: Assay of adenovirus proteinase activity in crude extracts: cleavage of [35S]-methionine-labeled pVII (SDS-PAGE, autoradiography); type: biochemical, adenovirus type 2; conditions: for Proteinase activity (cleavage of pVII): log phase cells
Experimental: The expression products of the above-described Ad2 and Ad12 proteinase plasmids were tested for their ability to cleave the Ad2 major core protein precursor, pVII, in crude extracts from adenovirus-infected cells. The extracts were obtained from human cells infected with the temperature-sensitive mutant Ad2 strain, H2ts1, which has a defective proteinase. As described below, adenovirus proteinase activity requires the presence of two cofactors. […] The recombinant proteinases were also characterized by peptide sequence analysis of their amino-termini.
Bacterial extracts were incubated with the radiolabeled substrate (pVII). Samples were removed at different times and analyzed by SDS-PAGE and autoradiography. […] Appearance of the processed VII band and concurrent decrease of the precursor pVII band indicates proteinase activity. Radiolabeled proteins of Ad2 virions were run on the gel to indicate the positions of pVII, VII, and other virion components (lane a). Extracts from Ad2 -infected HeLa cells were assayed as a positive control for proteinase activity (lane b).
Adenovirus proteinase activity was monitored by the cleavage of [^35 S]-methionine-labeled major core precursor (pVII) essentially as described (Bhatti and Weber, Biochem. Biophys. Res. Comm. 81: 973-797, (1978)). The proteinase substrate was prepared from Ad2Ad2tsl-infected HeLa cells grown at 39° C. and labeled with [^35 S]-methionine (200 μCi/plate) from approximately 28 to 30 hours after infection. Labeled cultures were harvested, washed twice in Phosphate Buffered Saline (PBS), resuspended in 1.0 ml of 10 mM sodium phosphate buffer, pH 7.4, per plate, and sonicated for 40 seconds using a water-cooled sonicator horn (Branson Sonic Power Co., Danbury, Conn.). The extract was then centrifuged at 12,000×g for 10 minutes, and the pellet was resuspended in 10 mM phosphate buffer.
Extracts of Ad-infected cells, harvested 40 hours after infection at 37° C. were used as a source of viral proteinase. Harvested cultures were washed twice with PBS, resuspended in 10 mM phosphate buffer, frozen and thawed once, and centrifuged at 12,000×g for 10 minutes. Pellets were resuspended in 1.0 ml phosphate buffer, pH 7.4, per 10^6 infected cells and sonicated 4×10 seconds; samples were stored at -70° C. Bacterial extracts were prepared by lysozyme-EDTAtreatment of cultures harvested 2 hours after IPTG induction.
Assays were performed by mixing equal volumes of [^35 S]-labeled substrate and test extract and incubating at 37° C. At different times, 25 μl samples were removed, mixed with 25 μl of SDS Sample Buffer, heated to 90° C., and analyzed by SDS-polyacrylamide gel electrophoresis and autoradiography as described (Anderson et al., J. Virol. 12: 241-252 (1973).
Recombinant proteinase polypeptides were assayed for proteinase activity by incubating whole-cell extracts of BL21 (DE3), pT7AD23K5/BL21(DE3), and pT7AD23k6/BL21(DE3), prepared as described above, with extracts of [^35 S]-methionine-labeled Ad2 virion precursor polypeptides. Incubation of the labeled extract at 37° C. for up to 20 hours, alone or with an extract prepared from uninfected HeLa cells, produced little change in the pattern of labeled polypeptides.

[2] = test system: HEP1DBP; assay: Cleavage of artificial protein substrate HEP1DBP (SDS-polyacrylamide gel electrophoresis); type: biochemical
Excerpt: Recombinant protein substrates that resemble natural virion precursors, such as pVI, can be produced in E. coli by genetic engineering methods similar to those used for expression of recombinant adenovirus proteinase. The recombinant substrate may have an artificial leader sequence that can be removed by proteinase-mediated cleavage. The leader can be designed to aid in purification of the substrate; thus the recombinant substrate can be produced and purified much more efficiently than natural adenovirus substrates. Recombinant protein substrates also serve as prototypes of potential commercial products, showing that the adenovirus proteinase will remove an artificial leader sequence from a recombinant protein that is not related to any adenovirus protein. The first artificial protein substrate was called HEP1DBP. It consists of a 17 amino acid leader (Met-Ala-Ser-Met-Thr-Gly-His-His-His-His-His-His-Gly-Met-Ser-Gly-Gly-) (SEQ ID NO: 37) attached to the initiating methionine of the 232 amino acid DNA binding protein (DBP), of bacteriophage T7. The T7 DBP is the product of gene 2.5. The recombinant proteinase substrate is produced by induction of a pET expression plasmid called pT7HEP1DBP (also called pT7HIS2) (FIG. 7A and Example 11); the predicted sequence of the expressed substrate is given in Table 1. The leader sequence contains six consecutive histidine residues to permit purification by metal affinity chromatography in a manner analogous to purification of the adenovirus proteinase. Immediately preceding the methionine corresponding to the initiation site of the T7 DBP is the tetra-amino acid element -Met-Ser-Gly-Gly- (SEQ ID NO: 38). This segment corresponds to the proteinase recognition sequence in the adenovirus virion precursor polypeptide pVI. The size of the leader sequence was chosen so that the substrate precursor HEP1DBP, and the predicted major product after cleavage, the T7 DBP, could easily be distinguished by SDS-polyacrylamide gel electrophoresis.
When purified HEP1DBP was incubated with disrupted wild-type adenovirus 2 virions, it was cleaved, as determined from the change in its mobility during SDS-polyacrylamide gel electrophoresis. No cleavage was observed when incubation was with disrupted H2ts1 virions alone.
Plasmid pT7HEP1DBP (5346 bp) is a pET-3 derivative that expresses the […] T7 gene 2.5 protein (a single-stranded DNA binding protein) attached to a 17-amino acid leader sequence (FIG. 19). The 249-amino acid HEP1DBP polypeptide serves as an artificial substrate for the adenovirus EP; the leader peptide, MASMTGHHHHHHGMSGG- (SEQ ID NO: 37), ends with the Ad2 proteinase recognition sequence -MSGG- (SEQ ID NO: 38) [Anderson, C. […]

[3] = target: T1, Ad2 proteinase (rEP protein) (Human adenovirus C serotype 2, UniProt P03252); type: biochemical, human adenovirus type 2; conditions: for Rate (pmol substrate min^-1) / Stimulation (fold): rate in presence of effector divided by rate in its absence: 8.3 nM rEP protein, 98 nM pVIc peptide; for Rate (pmol substrate min^-1): 1 μM (Leu-Arg-Gly-Gly-NH)2-rhodamine, effector at concentration giving maximal stimulation; for Stimulation (fold): rate in presence of effector divided by rate in its absence: 1 μM substrate; for Effector concentration that gave maximal stimulation of proteinase activity: moles of molecules per liter, 8.3 nM rEP, 98 nM pVIc
T1 construct: Plasmid pT7AD23k6 contains the 204 codons of the Ad2 proteinase reading frame plus a translational termination codon; made in house; host or cells: E. coli BL21(DE3)
T1 sequence (P03252 whole entry): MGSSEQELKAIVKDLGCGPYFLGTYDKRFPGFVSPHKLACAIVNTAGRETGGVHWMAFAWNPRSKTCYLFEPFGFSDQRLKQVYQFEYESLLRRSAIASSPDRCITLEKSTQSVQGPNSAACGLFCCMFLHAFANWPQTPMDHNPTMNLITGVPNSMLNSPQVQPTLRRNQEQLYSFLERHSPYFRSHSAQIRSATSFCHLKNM
Excerpt: The nature of the proteinase cofactor(s) was pursued with the aid of the second assay, which utilizes the substrate (Leu-Arg-Gly-Gly-NH)2 -rhodamine. The design of this substrate was based on two facts. (1) It was known that the proteinase present in disrupted Ad2 virions would cleave small peptides with sequence similar to that found at natural cleavage sites in adenovirus virion precursors (Webster et al., 1989). (2) Cleavage of either tetra-peptide sequence from the substituted rhodamine substrate produces a very large increase, up to a 3500-fold, in fluorescence. Under conditions where only a small fraction of the rhodamine substrate is cleaved, the increase in fluorescence is proportional to the amount of proteinase present and to the time of incubation. Thus, the fluorescence assay provides a quantitative method for assessing proteinase activity that is more sensitive convenient and rapid than the gel electrophoresis assay.
After determining the identity of the two cofactors, reconstitution of adenovirus proteinase activity in vitro with purified components was accomplished. […] In (a), Assays in 1 ml contained 1.2 nM rEP protein, 11.9 pM Ad2 DNA and the indicated concentrations of pVI-c peptide. The rate of substrate hydrolysis is the rate in the reaction minus the rate with the rEP protein and Ad2 DNA alone which was 0.068 pmol min^-1. In (b), Assays in 1 ml contained 1.2 nM rEP protein, 36 nM pVI-c peptide and the indicated concentrations of Ad2 DNA. The rate of substrate hydrolysis is the rate in the reaction minus the rate with the rEP protein and pVI-c alone which was 2.76 pmol min^-1. The concentration of (Leu-Arg-Gly-Gly-NH)2 -rhodamine was 5 μM, and its rate of hydrolysis to Leu-Arg-Gly-Gly-NH-rhodamine was determined by measuring the increase in fluorescence every 3 minutes for 15 minutes. The pVI-c peptide was assembled in a peptide synthesizer.
Assays were performed in 400 μl of Assay Buffer (50 mM Tris-HCl, pH 7.4, 25 mM NaCl, 10 mM octylglucoside, and 1 mM dithiothreitol). The concentration of the fluorogenic substrate, (Leu-Arg-Gly-Gly-NH)2 -rhodamine was 5 μM. When present, the number of disrupted virus particles was 10^10 and the amount of recombinant proteinase was 0.12 mAU280 nm. […] After 30 minutes at 37° C., a 360 μl aliquot of the reaction was added to 340 μl of Assay Buffer minus octylglucoside, and the increase in fluorescence was measured. The excitation wavelength was 492 nm and the emission wavelength was 523 nm, both with a bandwidth of 5 nm. The change in fluorescence, ΔF, is the magnitude of the fluorescence from the sample minus the magnitude of the fluorescence from an identical solution without enzyme.
DNase-treated disrupted virus was obtained by incubating 2×10^10 disrupted virions in 20 μl containing 0.1M NaAc, pH 5.0, 5 mM MgCl2, and 55 μg/ml DNase I for 4 minutes at 25° C. Then, EDTA to 23 mM and dithiothreitol to 2.3 mM were added, and the reactions were heated at 56° C. for 1 minute to inactivate the DNase.
For the assays shown in FIG. 8, the DNase reactions were diluted by the addition of 380 μl Assay Buffer containing the substrate, the proteinase and either 2×10^10 molecules of Ad2 DNA (+) or no DNA (-). After 30 minutes at 37° C., 360 μl of the reactions were added to 340 μl Assay Buffer minus octylglucoside and the increase in fluorescence was measured. The assays in (B) and (C) were identical to those in (A) except that in (B) H2ts1 virus was added after the DNase was inactivated (i-DNase) and in (C) no Dnase was present. In (D) recombinant proteinase plus 10^10 molecules of Ad2 DNA were preincubated for 10 minutes at 37° C. before adding substrate.
.dagger. All assays contained 8.3 nM rEP protein, 98 nM pVIc peptide, and
1 μM (Leu--Arg--Gly--Gly--NH)2rhodamine. The rate of substrate

**Q.** How did the Activity/Conditions ([1]; Induced, log phase) turn out when “23K8: recombinant wild-type Ad2 proteinase from pT7AD23K8 (gene with AflII site)” was run?
**A.** Active

**Q.** What about the “Proteinase activity (cleavage of pVII)” value ([1]; extracts of IPTG-induced) of the same compound?
**A.** active

**Q.** And the “Cleavage of HEP1DBP” value ([2]; incubated together with disrupted H2ts1 virions)?
**A.** cleavage was obtained

**Q.** What about the “Cleavage of HEP1DBP” value ([2]; incubated with HEP1DBP alone, no added cofactors) of the same compound?
**A.** no cleavage

**Q.** For “23K10: recombinant Ad2 proteinase from pT7AD23K10, same reading frame as pT7AD23k6”, which Activity/Conditions ([1]; Induced, log phase) is on record?
**A.** Active

**Q.** And the “Proteinase activity (cleavage of pVII)” value ([1]; extracts of IPTG-induced)?
**A.** active

**Q.** With “23K11: Ad2 proteinase variant, E5 QELKAIVK13 deleted, 194 amino acids” as the compound, how does the “Proteinase activity (cleavage of pVII)” value ([1]; either uninduced, stationary or induced) read?
**A.** No processing activity was detected; also recorded: No proteinase activity

**Q.** What about the “Proteinase activity (cleavage of pVII)” value ([1]; extracts of IPTG-induced) of the same compound?
**A.** not active

**Q.** And the Activity/Conditions ([1]; no growth conditions printed)?
**A.** Inactive

**Q.** Which results are given for “23K13: Ad2 proteinase variant with GHHHHHHNM at carboxy-terminus”?
**A.** Activity/Conditions ([1]; Induced, log phase): Active; Proteinase activity (cleavage of pVII) ([1]; extracts of IPTG-induced): as active as 23k6

**Q.** Which “Rate (pmol substrate min^-1)” value [3] does the source give for N[C@@H](CC(=O)O)C(=O)O [Aspartic acid] here?
**A.** 2.1 pmol substrate min^-1

**Q.** And the “Stimulation (fold): rate in presence of effector divided by rate in its absence” value [3]?
**A.** < 1.0 fold

**Q.** What about the “Effector concentration that gave maximal stimulation of proteinase activity” value [3] of the same compound?
**A.** 1380 nM

**Q.** Which results are given for N[C@@H](CCC(=O)O)C(=O)O [Glutamic acid]?
**A.** Rate (pmol substrate min^-1) [3]: 2.3 pmol substrate min^-1; Stimulation (fold): rate in presence of effector divided by rate in its absence [3]: < 1.0 fold; Effector concentration that gave maximal stimulation of proteinase activity [3]: 780 nM

**Q.** Which “Substitution for the pVI-c peptide as cofactor” value [3] does the source give for “CGYGPKKKRKVGG [peptide similar in character to pVI-c]” here?
**A.** did not substitute

**Q.** With “H2ts1: ts Ad2 proteinase with P to L mutation in codon 137, expressed from pT7AD23K18” as the compound, how does the Activity/Conditions ([1]; no growth conditions printed) read?
**A.** Temperature-

**Q.** And the EP activity ([2]; DEAE flow-through fractions from pT7AD23K18/BL21(DE3) grown at 30° C., in the presence of H2ts1 virions, substrate not stated)?
**A.** No EP activity

**Q.** With Heparin as the compound, how does the “Rate (pmol substrate min^-1)” value [3] read?
**A.** 12.9 pmol substrate min^-1

**Q.** And the “Stimulation (fold): rate in presence of effector divided by rate in its absence” value [3]?
**A.** 4.7 fold

**Q.** What about the “Substitution for Ad2 DNA as cofactor of proteinase activity” value ([3]; in vitro) of the same compound?
**A.** substituted for Ad2 DNA

**Q.** And the “Effector concentration that gave maximal stimulation of proteinase activity” value [3]?
**A.** 33 nM
